In brackets after ≈: the same amount, converted by molar mass. Read-outs that look alike come from different tables or passages of the source. Some results are limits rather than exact numbers.

The subject of one experiment is K. pneumoniae SI-117. Kind of experiment: microbe, parasite or virus in culture. To be noted: Klebsiella pneumoniae, SI117, read-out: MIC K. pneumoniae SI-117. The class given is cell-based. In outline:
(§1)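 Broth microdilution MICs followed CLSI methods in cation-supplemented Mueller-Hinton broth, with 2-fold serial compound dilutions. Log-phase cultures grown 3–5 h were added to a starting inoculum of 5×10^5 CFU/mL and incubated 16–20 h at 37 °C. The MIC was read visually as the lowest concentration with no growth.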

The next experiment has as its system K. pneumoniae UMM. Kind of experiment: microbe, parasite or virus in culture. It counts as cell-based. Particulars: Klebsiella pneumoniae; K. pneumoniae UMM producing SHV-5 and KPC-2; read-out: MIC K. pneumoniae UMM. A digest of the protocol: as §1
Another experiment has as its system E. coli AG100A. Kind of experiment: microbe, parasite or virus in culture. The class given is cell-based. Particulars: Escherichia coli, read-out: MIC E. coli AG100A. In outline:
as §1

The next experiment deals with E. coli D22. Kind of experiment: microbe, parasite or virus in culture. The class given is cell-based. Particulars: Escherichia coli; hyper-permeable E. coli D22, broth microdilution; read-out: MIC E. coli D22. In outline: as §1
On the technique in general: Broth dilution looks for growth in wells or tubes with falling amounts of substance.

In a further experiment the test system is E. coli 901C. Kind of experiment: microbe, parasite or virus in culture. It counts as cell-based. Particulars: Escherichia coli; hyper-permeable E. coli 901C, broth microdilution; read-out: MIC E. coli 901C. A digest of the protocol:
as §1

Another experiment deals with N. gonorrhoeae FA19. Kind of experiment: Liquid broth MIC, N. gonorrhoeae FA19. The class given is cell-based. Particulars: Neisseria gonorrhoeae; N. gonorrhoeae FA19, liquid broth; read-out: Minimum Inhibitory Concentration, N. gonorrhoeae FA19. A digest of the protocol:
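Broth microdilution in wild-type strains: colonies from GC agar with 1% Kellogg's supplement suspended in GC broth, inoculated at 5×10^5 CFU/mL into 2-fold compound dilutions. Plates incubated 40-42 hours at 36° C., 5% CO2; MIC read visually as lowest concentration with no growth.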

For a further experiment, the target named is E. coli PBP3 (Escherichia coli (strain K12), UniProt P0AD68). Kind of experiment: E. coli PBP3 Bocillin-FL fluorescence polarization competition binding assay. A digest of the protocol:
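Purified E. coli PBP (1.5 μM final) competed with inhibitor (0-1000 μM) for Bocillin-FL (0.1 μM final) in 50 mM Hepes pH 8.0, 300 mM NaCl, 5% glycerol. Fluorescence polarization (ex 490/em 520 nm) was read continuously for 60 min after Bocillin-FL addition. EC50 was the concentration that reduced Bocillin-FL binding by 50%.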

Where [1] appears, read: fluorescence polarization competition binding with Bocillin-FL, read-out: E. coli K12 PBP3 Potency.

Chain of E. coli PBP3 (P0AD68 whole entry): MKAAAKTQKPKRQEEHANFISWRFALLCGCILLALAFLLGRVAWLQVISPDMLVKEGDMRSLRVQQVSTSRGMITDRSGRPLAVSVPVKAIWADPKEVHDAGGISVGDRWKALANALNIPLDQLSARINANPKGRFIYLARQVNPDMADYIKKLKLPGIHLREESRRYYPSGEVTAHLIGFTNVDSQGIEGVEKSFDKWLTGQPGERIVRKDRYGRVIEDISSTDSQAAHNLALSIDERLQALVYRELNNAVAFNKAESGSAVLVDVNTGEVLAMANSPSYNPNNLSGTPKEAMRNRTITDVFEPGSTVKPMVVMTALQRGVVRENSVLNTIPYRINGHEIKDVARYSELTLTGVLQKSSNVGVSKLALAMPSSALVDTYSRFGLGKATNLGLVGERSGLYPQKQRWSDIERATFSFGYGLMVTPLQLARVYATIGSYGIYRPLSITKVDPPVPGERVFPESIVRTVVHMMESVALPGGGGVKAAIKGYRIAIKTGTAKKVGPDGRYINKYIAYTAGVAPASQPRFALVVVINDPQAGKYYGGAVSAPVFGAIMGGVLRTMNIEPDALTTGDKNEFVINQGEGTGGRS

Consider `CCNC(=O)NCCN1CCN(C(=O)NC(C(=O)N[C@H]2Cc3cccc(C(=O)O)c3OB2O)c2ccc(O)c(O)c2Cl)C(=O)C1=O` (stereo partly drawn) [Example 235, (3R)-3-(2-(2-chloro-3,4-dihydroxyphenyl)-2-(4-(2-(3-ethylureido)ethyl)-2,3-dioxopiperazine-1-carboxamido)acetamido)-2-hydroxy-3,4-dihydro-2H-benzo[e][1,2]oxaborinine-8-carboxylic acid], for which the MIC in the experiment on K. pneumoniae SI-117 was 8 to 16 µg/mL; in the experiment on K. pneumoniae UMM, 2 to 4 µg/mL; in the experiment on E. coli AG100A it was 2 to 4 µg/mL; in the experiment with E. coli D22 it was 2 to 4 µg/mL; with E. coli 901C, 2 to 4 µg/mL; in the experiment with N. gonorrhoeae FA19, greater than 64 µg/mL. Also, the EC50 on E. coli PBP3 (setting [1]) was less than 30 µM.
In the case of `O=C(O)c1c(F)ccc2c1OB(O)[C@@H](NC(=O)C(NC(=O)N1CCN(CCF)C(=O)C1=O)c1ccc(O)c(O)c1Cl)C2` (stereo partly drawn) [Example 131], the MIC with K. pneumoniae SI-117 fell in the range of 8 to 16 µg/mL; with K. pneumoniae UMM, 8 to 16 µg/mL; in the experiment with E. coli AG100A, 2 to 4 µg/mL; in the experiment with E. coli D22, 2 to 4 µg/mL; in the experiment with E. coli 901C, 0.5 to 1 µg/mL; in the experiment with N. gonorrhoeae FA19, 4 to 8 µg/mL (≈ 6.55 to 13.1 µM). The same compound yielded an EC50 on E. coli PBP3 of 30 to 500 µM.
On to `NCCCN1CCN(C(=O)NC(C(=O)N[C@H]2Cc3cccc(C(=O)O)c3OB2O)c2ccc(O)c(O)c2Cl)C(=O)C1=O` (stereo partly drawn) [Example 233, (3R)-3-(2-(4-(3-aminopropyl)-2,3-dioxopiperazine-1-carboxamido)-2-(2-chloro-3,4-dihydroxyphenyl)acetamido)-2-hydroxy-3,4-dihydro-2H-benzo[e][1,2]oxaborinine-8-carboxylic acid], for which the MIC in the experiment on K. pneumoniae SI-117 lay within 2 to 4 µg/mL; in the experiment with K. pneumoniae UMM, 2 to 4 µg/mL; with E. coli AG100A, 0.5 to 1 µg/mL; in the experiment with E. coli D22, 0.5 to 1 µg/mL; in the experiment on E. coli 901C, 0.5 to 1 µg/mL; in the experiment on N. gonorrhoeae FA19 it was 16 to 32 µg/mL (≈ 26.5 to 53 µM). Moreover, the EC50 at E. coli PBP3 was in the range of 30 to 500 µM.
On to `CCN1CCN(C(=O)NC(C(=O)N[C@H]2Cc3ccc(F)c(C(=O)O)c3OB2O)c2ncc(O)cc2Cl)C(=O)C1=O` (stereo partly drawn) [Example 151, (3R)-3-(2-(3-chloro-5-hydroxypyridin-2-yl)-2-(4-ethyl-2,3-dioxopiperazine-1-carboxamido)acetamido)-7-fluoro-2-hydroxy-3,4-dihydro-2H-benzo[e][1,2]oxaborinine-8-carboxylic acid], for which the MIC in the experiment on K. pneumoniae SI-117 was in the range of 32 to 64 µg/mL; in the experiment on K. pneumoniae UMM, 32 to 64 µg/mL; in the experiment on E. coli AG100A, 8 to 16 µg/mL; with E. coli D22 it was 8 to 16 µg/mL; in the experiment on E. coli 901C, 0.5 to 1 µg/mL; in the experiment with N. gonorrhoeae FA19, 4 to 8 µg/mL (≈ 6.92 to 13.8 µM). Further, the EC50 at E. coli PBP3 (setting [1]) is less than 30 µM.
On to `CS(=O)(=O)NCCN1CCN(C(=O)NC(C(=O)N[C@H]2Cc3cccc(C(=O)O)c3OB2O)c2ccc(O)c(O)c2Cl)C(=O)C1=O` (stereo partly drawn) [Example 229, (3R)-3-(2-(2-chloro-3,4-dihydroxyphenyl)-2-(4-(2-(methylsulfonamido)ethyl)-2,3-dioxopiperazine-1-carboxamido)acetamido)-2-hydroxy-3,4-dihydro-2H-benzo[e][1,2]oxaborinine-8-carboxylic acid], for which the MIC in the experiment with K. pneumoniae SI-117 was 8 to 16 µg/mL; in the experiment on K. pneumoniae UMM, 8 to 16 µg/mL; with E. coli AG100A, 0.5 to 1 µg/mL; in the experiment with E. coli D22, 2 to 4 µg/mL; in the experiment on E. coli 901C, 0.5 to 1 µg/mL; in the experiment with N. gonorrhoeae FA19, greater than 64 µg/mL. Also, the EC50 on E. coli PBP3 (setting [1]) is less than 30 µM.
Take `NCCN1CCN(C(=O)N[C@@H](C(=O)N[C@H]2Cc3cccc(C(=O)O)c3OB2O)c2ncc(O)cc2F)C(=O)C1=O` [Example 225, (R)-3-((R)-2-(4-(2-aminoethyl)-2,3-dioxopiperazine-1-carboxamido)-2-(3-fluoro-5-hydroxypyridin-2-yl)acetamido)-2-hydroxy-3,4-dihydro-2H-benzo[e][1,2]oxaborinine-8-carboxylic acid]: the MIC in the experiment on K. pneumoniae SI-117 lay within 8 to 16 µg/mL; with K. pneumoniae UMM, 8 to 16 µg/mL; in the experiment with E. coli AG100A, 0.5 to 1 µg/mL; in the experiment with E. coli D22, 2 to 4 µg/mL; in the experiment with E. coli 901C, 0.5 to 1 µg/mL; with N. gonorrhoeae FA19, 4 to 8 µg/mL (≈ 7.16 to 14.3 µM). The EC50 on E. coli PBP3 (setting [1]) was less than 30 µM.

(Values after patent publication US12173018B2, “Penicillin-binding protein inhibitors” (priority 2018, dated 2024).)
